Experimental data published in patent US20230202989A1, “COMPOUNDS” (JANSSEN PHARMACEUTICA NV, priority 2020, published 2023).

What was measured:
TNF = assay: PBMC assay: TNF cytokine levels after LPS stimulation (MSD); assay type: cell-based; settings: Homo sapiens, PBMC, 6 h, human PBMCs, 100 ng/ml LPS for 6 hrs
Method: (§1) Peripheral venous blood s collected from health individuals and human peripheral blood mononuclear cells (PBMCs) ere isolated from blood by Ficoll Histopaque (Sigma-Aldrich, A0561) density gradient centrifugation. After isolation, PBMCs were stored in liquid nitrogen for later use. Upon thawing, PBMC cell viability was determined in growth medium (RPMI media supplemented with 10% fetal bovine serum, 1% Pen-Strep and 1% L-glutamine). Compounds were spotted in a 1:3 serial dilution in DMSO and diluted to the final concentration in 30 μl medium in 96 well plates (Falcon, 353072). PBMCs were added at a density of 7.5×10^4 cells per well and incubated for 30 min in a 5% CO2 incubator at 37° C. LPS stimulation was performed by addition of 100 ng/ml LPS (final concentration, Invivogen, tlrl-smlps) for 6 hrs followed by collection of cellular supernatant and the analysis of IL-1β (μM) and TNF cytokines levels (μM) via MSD technology according to manufacturers' guidelines (MSD, K151A0H).
(§2) The IC50 values (for IL-1β) and EC50 values (TNF) were obtained on compounds of the invention/examples, and are depicted in the following table: […]

IL-1β = assay: PBMC assay: inhibition of IL-1β release after LPS stimulation (MSD); assay type: cell-based; settings: Homo sapiens, PBMC, 6 h, human PBMCs, 100 ng/ml LPS for 6 hrs, MSD, 96 well plates; read-out: IL1β IC50
Method: as §1, with “Compounds were spotted in a 1:3 serial dilution in DMSO and diluted to the final concentration in 30 μl medium in 96 well plates (Falcon, 353072).” left out
as §2

| Compound | EC50 (TNF) [µM] | IC50 (IL-1β) [µM] |
| --- | --- | --- |
| CCC(C)c1nn(CC(=O)Nc2ccc3nncn3c2)c(=O)c2ccc(C(F)(F)F)cc12 (centres unmarked) [Final Cpd X24] | > 20 | 0.175 |
| CC(C)c1nn(CC(=O)Nc2ccc3c(c2)[nH]c(=O)n3C)c(=O)c2ccc(C(F)(F)F)cc12 [Final Cpd X5] | > 20 | 0.064 |
| CO[C@H]1C[C@@H](NC(=O)Cn2nc(C(C)C)c3cc(C(F)(F)F)ccc3c2=O)C1 [Final Cpd X116] | > 20 | 2.09 |
| CC(C)c1nn(CC(=O)N[C@H]2CN(CC[C@@H](C)O)CC[C@H]2O)c(=O)c2ccc(C(F)(F)F)cc12 [Final Cpd X70] | > 20 | 0.74 |
| CC(C)c1nn(CC(=O)N[C@H]2CN(C3CC(F)(F)C3)CC[C@H]2O)c(=O)c2ccc(C(F)(F)F)cc12 [Final Cpd X83] | 12.9 | 0.91 |
| CC(C)c1nn(CC(=O)Nc2ccc3nncn3c2)c(=O)c2ccc(Br)cc12 [Final Cpd 36] | > 10 | < 0.025 |
| O=C(Cn1nc(C2CC2)c2cc(C(F)(F)F)ccc2c1=O)Nc1ccc2nncn2n1 [Final Cpd X34] | > 20 | 0.255 |
| Cc1nnc2n1CC(NC(=O)Cn1nc(C(C)C)c3cc(C(F)(F)F)ccc3c1=O)CC2 (centres unmarked) [Final Cpd X68] | > 20 | 0.728 |
| CCN1C[C@H](F)C[C@@H](NC(=O)Cn2nc(C(C)C)c3cc(C(F)(F)F)ccc3c2=O)C1 [Final Cpd X37] | > 20 | 0.316 |
| CC(C)c1nn(CC(=O)N[C@H]2C[C@@](C)(O)C2)c(=O)c2ccc(C3CC3)cc12 [Final Cpd 32] | > 20 | 0.213 |
| CCc1nn(CC(=O)Nc2ccc3nncn3c2)c(=O)c2ccc(Br)cc12 [Final Cpd 1] | > 20 | 0.115 |
| CC(C)c1nn(CC(=O)N[C@H]2CCCN3CCC[C@@H]23)c(=O)c2ccc(C(F)(F)F)cc12 [Final Cpd X60] | > 20 | 0.585 |

Results, then the compound that gave them:

| EC50 (TNF) [µM] | IC50 (IL-1β) [µM] | Compound |
| --- | --- | --- |
| > 20 | 14.2 | CC(C)c1nn(CC(=O)Nc2ccc(C(F)(F)F)nn2)c(=O)c2ccc(C(F)(F)F)cc12 [Final Cpd X161] |
| > 20 | 0.101 | O=C(Cn1nc(C2CC2)c2cc(Br)ccc2c1=O)Nc1ccc2nncn2c1 [X-1023] |
| > 20 | 6.49 | CC(C)c1nn(CC(=O)N[C@@H]2CC[C@H]2O)c(=O)c2ccc(C(F)(F)F)cc12 (single isomer, unassigned) [Final Cpd X149] |
| > 20 | 4.28 | CCN1CC[C@@H](NC(=O)Cn2nc(C(C)C)c3cc(C(F)(F)F)ccc3c2=O)[C@@H](O)C1 (single isomer, unassigned) [Final Cpd X139] |
| > 20 | 0.832 | COC(C)c1nn(CC(=O)N[C@H]2C[C@@](C)(O)C2)c(=O)c2ccc(Br)cc12 (some centres unmarked) [X-1018] |
| > 20 | 9.81 | CC(C)c1nn(CC(=O)N[C@@H]2COC[C@H](O)C2)c(=O)c2ccc(C(F)(F)F)cc12 (mixture of isomers) [Final Cpd X157] |
| > 20 | > 20 | CC(C)c1nn(CC(=O)Nc2ccc3nn(C)nc3c2)c(=O)c2ccc(C(F)(F)F)cc12 [Final Cpd X169] |
| > 20 | > 20 | CC(C)c1nn(CC(=O)Nc2ccc3nncn3c2)c(=O)c2ccc(C(F)(F)F)c(C#N)c12 [Final Cpd X170] |
| 9.89 | 0.04 | CC(C)c1nn(CC(=O)Nc2ccc3nncn3n2)c(=O)c2ccc(C(C)(F)F)cc12 [X-1003] |
| 13.2 | 0.175 | CC(C)c1nn(CC(=O)Nc2ccc3nccn3c2)c(=O)c2ccc(C(C)(F)F)cc12 [X-1067] |
| > 20 | 0.128 | CC(C)c1nn(CC(=O)Nc2ccncn2)c(=O)c2ccc(Cl)cc12 [X-1028] |
| > 20 | > 20 | CC(C)(F)c1nn(CC(=O)Nc2ccncn2)c(=O)c2ccc(C(F)(F)F)cc12 [Final Cpd X180] |
| > 20 | 1.26 | CC(C)c1nn(CC(=O)Nc2ccc3nncn3c2)c(=O)c2ccc(C(F)(F)C(F)(F)F)cc12 [X-1052] |
